Our source for the IC50 values is patent publication US20230002393A1, “CDK KINASE INHIBITOR” (BEIJING BENICALL BIOTECH CO., LTD., priority 2019, published 2023).

One test has as its target T1, CDK6/CyclinD1 (Homo sapiens, UniProt Q00534).
T1 construct: purchased Carna 04-114
Description: In vitro cell-free CDK6/CyclinD1 kinase activity assay (TR-FRET). The format is biochemical. To be noted: ATP at Km. As to the method:
It should be noted that the assay can also be conducted by a similar method. The assay steps in this Test Example are as follows:
The CDK6/CyclinD1 kinase activity was determined using a time-resolved fluorescence resonance energy transfer (TR-FRET) method. Measurements were performed in a reaction volume of 20 μL using 384-well assay plates. […] The reaction was stopped by adding a mixture of a peptide antibody (trade name: Cisbio, product No. 64CUSKAY) and Sa-XL665 (trade name: Cisbio, product No. 610SAXLB) diluted in HTRF KinEASE detection buffer (trade name: Cisbio, product No. 62SDBRDF, containing EDTA). After the mixture was incubated for 1 hour at room temperature, the plate was read. The TR-FRET signal was measured on a multimode plate reader (EnVision™, a multi-function microplate detector, PerkinElmer) at an excitation wavelength (λEx) of 330 nm and detection wavelengths (λEm) of 615 and 665 nm. The activity was determined by the ratio of fluorescence at 665 nm to that at 615 nm. For each compound, the enzyme activities of different concentrations of the compound were measured to determine IC50. The negative control contained no inhibitor. Two no-enzyme controls were used to determine baseline fluorescence levels. IC50 was obtained by fitting using the GraphPad 6.02 software.
8-10 concentrations were prepared for each compound, and formulated in DMSO. The stock concentration was 200× the working concentration. For example, if the working concentration was 100 nM, the corresponding concentration of the formulated stock solution was 20 μM.
In the analysis of in vitro inhibitory activity on CDK kinase, the IC50 value of each of the Example compounds and Reference Example compounds was determined.
On the technique in general: TR-FRET usually uses a lanthanide donor and a delayed reading to cut background.

In another test the test system is MCF-7 cells. Description: Cell viability assay, MCF-7 cells (CellTiter-Glo, 168 h). The format is cell-based. To be noted: Homo sapiens, MCF7. As to the method:
An in vitro cell viability assay was conducted using some Example compounds following the steps below:
1. After recovery, MCF-7 cells (obtained from the Shanghai Cell Bank of the Chinese Academy of Sciences) were cultured at 37° C., 5% CO2, and 95% humidity.
2. 8 compound solutions at different concentrations were prepared for each Example compound. 50 μL of the compound solution at each concentration was added to a 96-well black plate.
3. The cell concentration was adjusted to about 30,000 cells/mL. 100 μL of the cell suspension was added to the 96-well plate, and mixed well to a final cell density of about 3,000 cells/well.
4. The 96-well plate was incubated at 37° C., 5% CO2, and 95% humidity for 168 h, i.e., 7 days.
5. The cell survival rate was measured by the method of CellTiter-Glo® Luminescent Cell Viability Assay (Promega, Cat #G7572). The fluorescence data were read on a microplate reader (EnVision™, a multi-function microplate detector, PerkinElmer).
6. The obtained fluorescence data were analyzed using the GraphPad Prism software. The cell survival rate was calculated for each Example compound at each concentration, and the IC50 interval of each Example compound was determined.

The term IC50 denotes the concentration that gives 50% inhibition. Read a low IC50 as inhibition by little substance.

T1 sequence (Q00534 whole entry): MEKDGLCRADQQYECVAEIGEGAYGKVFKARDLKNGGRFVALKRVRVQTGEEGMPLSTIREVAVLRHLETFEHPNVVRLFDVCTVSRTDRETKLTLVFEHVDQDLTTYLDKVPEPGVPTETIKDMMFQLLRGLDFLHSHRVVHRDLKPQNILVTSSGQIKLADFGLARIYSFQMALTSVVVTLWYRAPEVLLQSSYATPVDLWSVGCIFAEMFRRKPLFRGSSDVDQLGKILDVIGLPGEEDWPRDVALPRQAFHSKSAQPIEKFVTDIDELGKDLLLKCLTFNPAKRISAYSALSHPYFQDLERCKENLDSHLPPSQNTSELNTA
T1 sequence (P24385 whole entry partner): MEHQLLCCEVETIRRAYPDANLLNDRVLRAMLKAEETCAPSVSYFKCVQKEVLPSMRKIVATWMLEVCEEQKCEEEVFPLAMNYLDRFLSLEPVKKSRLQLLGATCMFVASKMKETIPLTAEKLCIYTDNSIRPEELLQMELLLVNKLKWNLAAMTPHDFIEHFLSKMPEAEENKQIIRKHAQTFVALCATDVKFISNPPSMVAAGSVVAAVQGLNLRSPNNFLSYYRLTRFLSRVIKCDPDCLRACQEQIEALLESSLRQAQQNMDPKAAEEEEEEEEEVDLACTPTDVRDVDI

With `COC(=O)c1cc2cnc(Nc3ccc(N4CCNCC4)cn3)nn2c1-c1cccc2cccnc12` [Reference Example 132, reference compound], the 50% inhibitory concentration (IC50) at CDK6/CyclinD1 was over 3000 nM; in the test with MCF-7 cells, over 10000 nM.

With `CN(C)C(=O)c1cc2cnc(Nc3ccc(N4CCNCC4)cn3)nn2c1N1CCCC1` [Example 29], the IC50 at CDK6/CyclinD1 was under 100 nM; in the test on MCF-7 cells, under 500 nM. Taken in the same sequence, the figures for `C1=C(c2c(-c3cncnc3)cc3cnc(Nc4ccc(N5CCC6(CCNCC6)CC5)cn4)nn23)CCC1` [Example 96] were under 100 nM and 500 to 2500 nM. As for `Cn1cc(-c2cc3cnc(Nc4ccc(N5CCNCC5)cn4)nn3c2Br)cn1` [Example 82], the concentration for half-maximal inhibition (IC50) on CDK6/CyclinD1 is 100 to 1000 nM; in the test on MCF-7 cells, under 500 nM.

For the compound `CCN1CCN(c2ccc(Nc3ncc4cc(C(=O)N(C)C)c(C5=CCCC5)n4n3)nc2)CC1` [Example 103], the results for the half-inhibitory concentration (IC50) on CDK6/CyclinD1 and in the test on MCF-7 cells were under 100 nM and under 500 nM, respectively.

Consider `CN(C)C(=O)c1cc2cnc(Nc3ccc(N4CCC5(CC4)CNC5)cn3)nn2c1-c1ccc(Cl)cc1` [Example 44], for which the concentration for half-maximal inhibition (IC50) against CDK6/CyclinD1 is under 100 nM; with MCF-7 cells, under 500 nM. Take `CN(C)C(=O)c1cc2cnc(Nc3ccc(N4CCN(C5CC5)CC4)cn3)nn2c1C1=CCCC1` [Example 109]: the IC50 at CDK6/CyclinD1 is under 100 nM; in the test with MCF-7 cells, under 500 nM. Taken in the same sequence, the figures for `COc1ccc(-c2c(C#N)cc3cnc(Nc4ccc(N5CCNCC5)cc4)nn23)cn1` [Example 18] were under 100 nM and under 500 nM. Consider `[2H]C([2H])([2H])N1CCN(c2ccc(Nc3ncc4cc(C(=O)N(C)C)c(C5=CCCC5)n4n3)nc2)CC1` [Example 102], for which the IC50 against CDK6/CyclinD1 is under 100 nM; in the test with MCF-7 cells, under 500 nM. In the case of `CN(C)C(=O)c1cc2cnc(Nc3ccc(N4CCNCC4)cn3)nn2c1-c1cnn(C)c1` [Example 56], the IC50 at CDK6/CyclinD1 fell in the range of 100 to 1000 nM. `COCCOc1ccc(-c2c(C(=O)N(C)C)cc3cnc(Nc4ccc(N5CCC6(CC5)CNC6)cn4)nn23)cc1` [Example 48] yielded an IC50 against CDK6/CyclinD1 of under 100 nM. Compound `CN(C)C(=O)c1cc2cnc(Nc3ccc(N4CCC5(CC4)CNC5)cn3)nn2c1-c1ccncc1` [Example 63] came in with an IC50 at CDK6/CyclinD1 of under 100 nM. Same read-out and setting: to `Cn1ccc(-c2cc3cnc(Nc4ccc(N5CCNCC5)cn4)nn3c2C2=CCCC2)cc1=O` [Example 80] belongs under 100 nM. Same read-out and setting: to `CN(C)C(=O)c1cc2cnc(Nc3ccc(N4CC5(CNC5)C4)cn3)nn2c1-c1cnn(C)c1` [Example 66] belongs under 100 nM; to `Cc1nn(C)cc1-c1c(C(=O)N(C)C)cc2cnc(Nc3ccc(N4CC5(CNC5)C4)cn3)nn12` [Example 67], 100 to 1000 nM; to `Cn1cc(-c2cc3cnc(Nc4ccc(N5CCNCC5)cn4)nn3c2N2CCOCC2)cn1` [Example 79], under 100 nM. Take `Cn1cc(-c2cc3cnc(Nc4ccc(N5CCNCC5)cn4)nn3c2C2=CCCC2)ncc1=O` [Example 77]: the half-maximal inhibitory concentration (IC50) against CDK6/CyclinD1 is 100 to 1000 nM.

For `COc1ccc(-c2c(-c3cnn(C)c3)c(-c3ccc(OC)cc3)n3nc(Nc4ccc(N5CCNCC5)cn4)ncc23)cc1` [Reference Example 129, reference compound], on CDK6/CyclinD1, the IC50 was over 3000 nM. The compound `CN(C)C(=O)c1cc2cnc(Nc3ccc(N4CCNCC4)cn3)nn2c1-c1cccnc1` [Example 36] displayed an IC50 against CDK6/CyclinD1 of 100 to 1000 nM. In turn, `Cn1cc(-c2c(C3=CCCC3)c3cnc(Nc4ccc(N5CCNCC5)cn4)nn3c2C2=CCCC2)cn1` [Reference Example 130, reference compound] showed an IC50 against CDK6/CyclinD1 of 1000 to 3000 nM.

As for `CN(C)C(=O)c1cc2cnc(Nc3ccc(N4CC5(CCNC5)C4)cn3)nn2c1-c1cnn(C)c1` [Example 70], the IC50 against CDK6/CyclinD1 is under 100 nM.

On CDK6/CyclinD1, `COc1cc(F)ccc1-c1c(C(=O)N(C)C)cc2cnc(Nc3ccc(N4CCC5(CC4)CNC5)cn3)nn12` [Example 62] gave an IC50 of 100 to 1000 nM.

Take `CN(C)C(=O)c1cc2cnc(Nc3ccc(N4CCC5(CC4)CNC5)cn3)nn2c1-c1cnn(C)c1` [Example 64]: on CDK6/CyclinD1, the IC50 is 100 to 1000 nM. On CDK6/CyclinD1, `CN(C)C(=O)c1cc2cnc(Nc3ccc(N4CC5(CNC5)C4)cn3)nn2c1-c1ccncc1` [Example 61] returned an IC50 of under 100 nM.
